{
  "source": "patent US20110009628A1",
  "about": "“Compounds and Compositions for Modulating Lipid Levels and Methods of Preparing Same” (priority 2009, published 2011)",
  "key": {"[1]": {"test_system": "LDLR mRNA expression in HepG2 cells", "assay": "LDLR mRNA expression in HepG2 cells, quantitative real-time RT-PCR (Example 7)", "type": "cell-based, human", "settings": "dose less than or equal to 10 μM, 24 hours", "in_short": "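LDLR mRNA quantified by TaqMan real-time PCR in triplicate, normalized to GAPDH and expressed relative to untreated cells set at 1 (mean±s.d.).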"}, "[2]": {"test_system": "LDLR ligand uptake activity in HepG2 cells", "assay": "DiI-LDL uptake in HepG2 cells (Example 6); also: key: +: slightly increased fluorescent intensity over control; ++: modestly increased fluorescent intensity over control; +++: strongly increased fluorescent intensity over control", "type": "cell-based, human", "settings": "20 hours", "description": "HepG2 cells (2×10^5 cells/well) in 24-well culture plates were treated with various compounds at indicated concentrations for 20 hours. The fluorescent 1.1′-dioctadecyl-3,3,3′,3′-tetramethylindocarbocyanin perchlorate (DiI-LDL) (Biomedical Technologies, Stoughton, Mass.) at a concentration of 2 μg/mL was added to cells at the end of treatment. After 4 hours, the medium was removed, cells were washed with cold PBS, and were examined immediately under a fluorescent microscope (Nikon) at 200× amplification. The fluorescent intensity in compound-treated cells was compared to that in untreated control cells. […] In these experiments berberine chloride was used for comparison."}, "[3]": {"test_system": "intracellular triglyceride in HepG2 cells", "assay": "Reduction of intracellular triglyceride in HepG2 cells (Example 8)", "type": "cell-based, human", "text": "Berberine chloride was used for comparison. The amount of TG in untreated control cells was defined as 100% and the amounts of TG in compound-treated cells were divided to that value."}, "[4]": {"assay": "Stability of compound 69 under cell culture conditions, LC-MS of medium", "type": "in vitro ADME, human", "settings": "for Peak Area m/z 466.1: 20 μM in HepG2 culture medium", "description": "HepG2 cells were cultured in 6-well cell culture plate in EMEM containing 0.5% FBS overnight. Compound 69+ was added to the culture medium to a final concentration of 20 μM. Medium was collected at 0 (control), 4, 8, or 24 hours after the compound addition.\nThe collected media were analyzed by LC-MS on a Thermo Fisher Scientific Surveyor HPLC system and LCQ ion trap MS with electrospray ionization source. A 50×2. 1 mm Hypersil Gold C18 3 um column was used with a flow rate of 200 uL/min. The method conditions were 98% A (0.1% formic acid in water)/2% B (0.1% formic acid in acetonitrile) then a gradient to 95% B in 10 minutes. The injection volume was 10 uL."}, "[5]": {"test_system": "LDLR mRNA expression in HepG2 cells", "assay": "LDLR mRNA expression in HepG2 cells, Compounds 162 and 163, real-time RT-PCR (Example 13)", "type": "cell-based, human", "settings": "FIGS. 6A and 6B", "description": "In FIG. 6A HepG2 cells were exposed to Compounds 162 and 163 at the indicated concentrations (x-axis) for 24 h and plotted against normalized LDLR mRNA levels (fold of control in absence of compound). In FIG. 6B, HepG2 cells were treated with 20 μM of each compound for the indicted times (x-axis) and plotted against normalized LDLR mRNA levels (fold of control at 24 h).\nThe time- and dose-dependent effects of the enantiomers of Compound 127 (Compounds 162 and 163) on LDLR mRNA expression were examined using quantitative real-time RT-PCR assays (FIGS. 6A and 6B). HepG2 cells were treated with Compound 162 and Compound 163 at indicated concentrations for various times. Total RNA was isolated and […] was used to generate cDNA in a reaction containing random primers and M-MLV at 37° C. for 1 h in a volume of 25 μL. Real-time PCR was performed on the cDNA using MCEP REALPLEX 2 SYSTEM (Eppendorf) and Universal MasterMix (Applied Biosystems). Human LDLR and GAPDH Pre-Developed TaqMan Assay Reagents (Applied Biosystems) were used to assess the levels of mRNA expressions in HepG2. The levels of LDLR mRNA were normalized to that of GAPDH. Each RNA samples was assayed in triplicate. The fold activity was calculated by dividing mRNA abundance in compound treated cells with that of control."}, "[6]": {"test_system": "LDLR protein expression in HepG2 cells", "assay": "Western blot of LDLR protein in HepG2 cells, Compounds 162 and 163", "type": "cell-based, human", "settings": "20 μM, 16 or 24 hours, FIG. 7", "description": "(§1) FIG. 7 is a Western blot analysis of LDLR and PCSK9 expression in HepG2 cells. HepG2 cells seeded in 12-well culture plates were cultured in 0.5% FBS MEM overnight. Compounds 162 and 163 at 20 μM were added to cells for the indicated times. Untreated and treated cells were harvested at the same indicated time points. Total cell lysates were isolated and 50 μg per sample was analyzed for LDLR and PCSK9 protein abundance by western blotting. The membrane was reprobed with anti-actin antibody to examine the equal loading of cell lysates.\nChicken anti-LDLR was purchased from Abcam. HepG2 cells cultured in 60-mm dishes were incubated overnight in medium containing 0.5% fetal bovine serum prior to the addition of compounds at 20 μM concentration. After 16 or 24 hours of treatment, total cell lysate was isolated and 50 μg of protein was separated on SDS-PAGE and transferred to nitrocellulose membrane for immunoblotting with anti-LDLR."}, "in vivo": {"assay": "in vivo", "design": "species or system Golden Syrian hamsters", "settings": "hamster, po", "description": "For testing the efficacy of Compound 141 (phosphate salt of Compound 127) or its enantiomers (Compound 162/Compound 163) the following suspension formulation procedure was developed to make 100 ml of Compound 141 in suspension at 10 mg/ml concentration in 0.1 M tartaric buffer pH. 3 containing 0.5% hydroxypropylcellulose H-type (HPC-H):\nStep 1: 1.50 g L-(+)-tartaric acid was dissolved in 100 mL water to prepare a tartaric acid solution. The solution was adjusted to pH 3 with 1.2 mL 5N NaOH solution to provide the tartaric acid buffer (100 mM). Step 2: 0.5 g HPC-H powder was added to 10 mL tartaric acid buffer (100 mM) at 50° C. The slurry was stirred for 30 minutes, and then diluted with 90 mL tartaric acid buffer (100 mM) at room temperature to provide 0.5% HPC-H. Agitation was continued until all particles were dissolved and the solution was completely free of gels. Step 3: 1.20 g Compound 141 (or Compound 162 or Compound 163) and 1.20 g mannitol were mixed and ground through a 120 mesh sieve, then the mixture was ground slightly again. The mixture was dispersed in 100 mL 0.5% HPC-H-L-(+)-Tartaric acid buffer (pH=3), then stirred until the drug dispersed evenly. The final pH was 2.6. All the above procedures were completed at room temperature (˜25° C.). The final concentration of Compound 141 was 10 mg/ml after correction of the salt weight.\nThe pharmacokinetic profile and bioavailability of Compound 141 (phosphate salt of Compound 127) in male Wistar rats following single intravenous (iv) and oral administration (p.o.) were measured according to the procedures of Example 4 and are summarized in Table 11. The pharmacokinetic profile of Compound 162 in male Golden Syrian masters following oral administration (pox) is summarized in Table 12."}, "[7]": {"test_system": "PCSK9 protein expression in HepG2 cells", "assay": "Western blot of PCSK9 protein in HepG2 cells, Compounds 162 and 163", "type": "cell-based, human", "settings": "20 μM, time-dependent, FIG. 7", "description": "as §1\nRecent studies have identified the liver secreted serine protease PCSK9 (proprotein convertase subtilisin type 9) as a natural inhibitor of LDLR protein expression that degrades hepatic LDLR protein, thus increasing circulating LDL-C levels."}, "[8]": {"test_system": "LDLR mRNA expression in HepG2 cells", "assay": "LDLR mRNA expression in HepG2 cells, semi-quantitative RT-PCR", "type": "cell-based, human", "settings": "8 hours, FIG. 1", "description": "HepG2 cells obtained from American Tissue Culture Collection (Manassas, Va., USA) were seeded in 6-well culture plates at a density of 0.8×10^6 cells/well cultured in EMEM containing 0.5% FBS and were treated with each purified compound at indicated doses for 8 hours. Total RNA was isolated, and 2 μg per sample was reverse transcribed with random primers using M-MLV (Promega) at 37° C. for 1 hour. PCR was carried out at 94° C. for 30 sec, 60° C. for 30 sec, and 72° C. for 30 sec with initial activation of the enzyme at 94° C. for 1 minute. Thirty cycles were performed for LDLR and GAPDH. PCR was performed using primers HLDLR-up and HLDLR-lo for LDLR and primers HGAPDH-up and HGAPDH-lo for GAPDH. The PCR products were separated on a 1% agarose gel and the band intensity was quantitated. LDLR mRNA levels were corrected by measuring GAPDH mRNA levels."}, "[9]": {"test_system": "LDLR mRNA expression in HepG2 cells", "assay": "LDLR mRNA expression in HepG2 cells, simvastatin versus compound 91 (Example 10)", "type": "cell-based, human", "settings": "24 hours, FIG. 4A", "description": "(§2) In yet another experiment, HepG2 cells were treated with various compounds for 24 hours at the indicated doses. Total RNA was isolated and 2 μg was used to generate cDNA in a reaction containing random primers and M-MLV at 37° C. for 1 hour in a volume of 25 μL. Real-time PCR was performed on the cDNA using MCEP REALPLEX 2 SYSTEM (Eppendorf) and Universal MasterMix (Applied Biosystems). Human LDLR and GAPDH Pre-Developed TaqMan Assay Reagents (Applied Biosystems) were used to assess the levels of mRNA expressions in HepG2. The levels of LDLR mRNA were normalized to that of GAPDH. Each RNA samples was assayed in triplicate. The abundance of LDLR mRNA in untreated cells was defined as 1, and the amounts of LDLR mRNA from compound-treated cells were plotted relative to that value in FIG. 2B. The data shown are mean±s.d.\n(§3) Total RNA was harvested for quantitative real-time RT-PCR analysis using method described in Examples 5B. The fold activity was derived by dividing the amount of normalized LDLR or PCSK9 mRNA in compound-treated cells over the amount of LDLR or PCSK9 mRNA in untreated control cells."}, "[10]": {"test_system": "PCSK9 mRNA expression in HepG2 cells", "assay": "PCSK9 mRNA expression in HepG2 cells, simvastatin versus compound 91 (Example 10)", "type": "cell-based, human", "settings": "24 hours, FIG. 4B", "description": "as §2, §3"}},
  "note": "Structures can show the parent of a compound that is named as a salt.",
  "data": [
    {"smiles": "COc1ccc2c(c1OS(=O)(=O)c1ccccc1)CN1CCc3cc4c(cc3C1C2)OCO4", "note": "(centres unmarked) [Compound 69, 9-benzenesulfonyloxy-10-methoxy-5,8,13,13a-tetrahydro-6H-[1,3]dioxolo[4,5-g]isoquino[3,2-a]isoquinoline]", "values": [
      {"measurement": "Activity on LDLR mRNA expression (Fold of control)", "setting": "[1]", "value": "2.21 ± 0.09 Fold of control"},
      {"measurement": "Activity on DiI-LDL uptake", "setting": "[2]; A, compound dose ≦10 μM", "value": "+++"},
      {"measurement": "Activity on reduction of cellular TG accumulation (% of control)", "setting": "[3]; A, compound dose ≦10 μM", "value": "60.4 ± 7.34 % of control"},
      {"measurement": "Peak Area m/z 466.1", "setting": "[4]; 0 (control) hours", "value": "2.38e8"},
      {"measurement": "Peak Area m/z 466.1", "setting": "[4]; 4 h", "value": "9.67e7"},
      {"measurement": "Peak Area m/z 466.1", "setting": "[4]; 8 h", "value": "9.22e7"},
      {"measurement": "Peak Area m/z 466.1", "setting": "[4]; 24 h", "value": "7.03e7"},
      {"measurement": "stability under cell culture conditions", "setting": "[4]; HepG2 culture medium, up to 24 hours", "value": "fairly stable under cell culture conditions"}
    ]},
    {"smiles": "COc1cc2c(cc1OC)C1Cc3ccc(OC)c(OS(=O)(=O)c4cccc(F)c4)c3CN1CC2", "note": "(single isomer, unassigned) [Compound 163, 2,3,10-Trimethoxy-5,6,7,8,13,13a-hexahydroisoquinolin[2,1-b]isoquinolin-9-yl 3-fluorobenzenesulfonate phosphate Salt (Enantiomer having negative optical rotation)]", "values": [
      {"measurement": "LDLR mRNA expression", "setting": "[5]", "value": "upregulate LDLR mRNA expression"},
      {"measurement": "LDLR mRNA and protein expression", "setting": "[6]", "value": "significantly enhance"},
      {"measurement": "pharmacokinetic properties and bioavailability, in words", "setting": "in vivo", "value": "excellent pharmacokinetic properties and good bioavailability"},
      {"measurement": "PCSK9 cellular levels", "setting": "[7]", "value": "greatly decreased"}
    ]},
    {"smiles": "COc1cc2c(cc1OC)[C@H]1[C@@H](C)c3ccc(OC)c(OC)c3CN1CC2", "note": "[14R,13S-(+)-CRDL]", "values": [
      {"measurement": "Activity on DiI-LDL uptake", "setting": "[2]; B, compound dose ≦40 μM", "value": "++"},
      {"measurement": "effects on LDLR mRNA expression", "setting": "[8]", "value": "potent and dose-dependent effects"}
    ]},
    {"smiles": "COc1cc2c(cc1OC)C1Cc3ccc(OC)c(OS(=O)(=O)c4ccccc4)c3CN1CC2", "note": "(centres unmarked) [Compound 91, 2,3,10-trimethoxy-5,6,7,8,13,13a-hexahydroisoquinolino[2,1-b]isoquinolin-9-yl benzenesulfonate]", "values": [
      {"measurement": "LDLR mRNA expression", "setting": "[9]", "value": "dose-dependently increases"},
      {"measurement": "Activity on LDLR mRNA expression (Fold of control)", "setting": "[1]", "value": "3.77 ± 0.20 Fold of control"},
      {"measurement": "Activity on reduction of cellular TG accumulation (% of control)", "setting": "[3]; B, compound dose ≦40 μM", "value": "71.17 ± 2.23 % of control"},
      {"measurement": "PCSK9 mRNA expression", "setting": "[10]", "value": "inhibits"}
    ]},
    {"smiles": "COc1cc2c(cc1OC)[C@H]1Cc3ccc(OC)c(OC)c3CN1CC2", "note": "[14R-(+)-THP, 14R-tetrahydropalmatine, reference compound]", "values": [
      {"measurement": "Activity on DiI-LDL uptake", "setting": "[2]; B, compound dose ≦40 μM", "value": "++"},
      {"measurement": "effects on LDLR mRNA expression", "setting": "[8]", "value": "potent and dose-dependent effects"}
    ]}
  ]
}
